Measurements from paper PMC9937538 (Journal of Medicinal Chemistry, 2022).
Converted amounts (≈) assume the structure as drawn. “And” between values parts separate entries of the source, which are not always exact repeats. Identical values can stand only once.

How the values were obtained:
human cloned α1a-AR = target: T1, human cloned α1a-AR (Homo sapiens, UniProt P35348); assay: α1a-AR binding assay ([3H]prazosin displacement); details: human cloned α1a-AR expressed in HEK293 cells
T1 construct: expressed in transfected cells
T1 sequence (P35348 1-466): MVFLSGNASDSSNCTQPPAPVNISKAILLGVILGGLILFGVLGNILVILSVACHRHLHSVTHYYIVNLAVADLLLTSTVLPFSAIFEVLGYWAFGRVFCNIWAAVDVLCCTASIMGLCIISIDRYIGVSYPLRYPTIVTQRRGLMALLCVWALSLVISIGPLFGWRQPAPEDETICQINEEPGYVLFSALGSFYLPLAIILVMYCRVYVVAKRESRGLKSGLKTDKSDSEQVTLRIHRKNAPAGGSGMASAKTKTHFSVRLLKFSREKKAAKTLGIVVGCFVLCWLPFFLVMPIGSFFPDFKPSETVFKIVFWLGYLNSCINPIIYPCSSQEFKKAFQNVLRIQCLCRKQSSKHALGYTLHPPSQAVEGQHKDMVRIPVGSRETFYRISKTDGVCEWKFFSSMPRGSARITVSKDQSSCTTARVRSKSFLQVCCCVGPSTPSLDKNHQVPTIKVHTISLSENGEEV
Source text: Since WB-4101 is a potent α1 antagonist, this adrenoreceptor subtype was chosen to assess the loss of adrenergic affinity.
Figure S3. […] Curves […]
from single experiments were fitted using the standard four parameter logistic equation and represent the mean ± S.E.M. of 4 observations, 2 experi-ments. X-axis: Log concentrations of competitive test compounds. Y-axis: normalized [3H]prazosin Bound/Total bound.
In the table are reported the affinity constants, expressed as pKi (-log Ki), of compounds 11, 12 and WB-4101 for human cloned α1a-AR expressed in HEK293 cells. The values represent the arithmetic mean ± S.E.M. of 4 observations, 2 experiments.
ND, not determinable; NA, not available.
Note: data generated from binding assays were analyzed using Prism 5.02 (GraphPad Software Inc., San Diego, CA) and were fitted to a parametric function to derive best estimates of the IC50 and slope factor (nH); IC50 values were then converted to binding constant Ki according to Cheng-Prus- […]
The details on the α1a-AR binding assay have been described before2.
(1 picture or pasted object on this page, not shown here)

Caco-2 cells [1] = assay: Uptake by Caco-2 cells (intrinsic fluorescence, normalized with Janus Green); type: in vitro ADME, human; details: 1.0 μM
Description: The ability of compound 12 to be uptaken by Caco-2 cells was assessed, exploiting its natural behavior to emit fluorescence at 313 nm after excitation at 250 nm using a fluorescent plate reader. […] Fluorescence signals emitted at 313 nm by the compound localized at the intracellular level as a function of time have been normalized for the total amount of cells stained using Janus Green (OD 595 nm); therefore, the relative fluorescence unit (RFU) 313/595 nm after 15, 30, and 60 min of incubation was calculated. The RFU 313/595 nm of the blank samples, which represents the cellular background, was subtracted from each normalized fluorescence signal. […] In particular, compound 12 is absorbed by Caco-2 cells up to 2874 ± 383.1, 4562 ± 993.2, and 6250 ± 1163RFU after 15, 30, and 60 min, respectively (Figure 7).

Caco-2 cells [2] = assay: MTT assay; type: cell-based, human; details: 10^–8 to 10^–5 M, 48 h
Description: (§1) The cytotoxicity of the active compound 12 was determined. Cell viability was assessed by the quantitative colorimetric method of the MTT reduction on Caco-2 and HepG2 cells.
(§2) A total of 3 × 10^4 Caco-2 and HepG2 cells/well were seeded in 96-well plates and treated with 11 and 12 from 10^–8 to 10^–5 M or vehicle (H2O) in complete growth media for 48 h at 37 °C under a 5% CO2 atmosphere. Subsequently, the treatment solvent was aspirated and 100 μL/well of 3-(4,5-dimethylthiazol-2-yl)-2,5-diphenyltetrazolium bromide (MTT) filtered solution was added. After 2 h of incubation at 37 °C under a 5% CO2 atmosphere, 0.5 mg/mL solution was aspirated and 100 μL/well of the lysis buffer (8 mM HCl + 0.5% NP-40 in DMSO) was added. After 10 min of slow shaking, the absorbance at 575 nm was read on a Synergy H1 fluorescence plate reader (Biotek, Bad Friedrichshall, Germany).

HepG2 cells = assay: MTT assay; type: cell-based, human; details: 10^–8 to 10^–5 M, 48 h
Description: as §1, §2

[3] = Solubility in phosphate-buffered saline (LC-MS/MS); type: physicochemical; details: pH 7.4, read-out: soluble concentration
Description: The solubility of compound 12 was determined in phosphate-buffered saline at a pH of 7.4 through a suitable liquid chromatography and tandem mass spectrometry (LC-MS/MS) method, as described in the Experimental Section.

[4] = target: T2, purified recombinant human DPP IV (Homo sapiens, UniProt P27487); assay: In vitro DPP IV activity assay (fluorogenic Gly-Pro-AMC substrate); type: biochemical; details: mean from three different assays
T2 construct: purchased Cayman Chemicals (Michigan)
T2 sequence (P27487 whole entry): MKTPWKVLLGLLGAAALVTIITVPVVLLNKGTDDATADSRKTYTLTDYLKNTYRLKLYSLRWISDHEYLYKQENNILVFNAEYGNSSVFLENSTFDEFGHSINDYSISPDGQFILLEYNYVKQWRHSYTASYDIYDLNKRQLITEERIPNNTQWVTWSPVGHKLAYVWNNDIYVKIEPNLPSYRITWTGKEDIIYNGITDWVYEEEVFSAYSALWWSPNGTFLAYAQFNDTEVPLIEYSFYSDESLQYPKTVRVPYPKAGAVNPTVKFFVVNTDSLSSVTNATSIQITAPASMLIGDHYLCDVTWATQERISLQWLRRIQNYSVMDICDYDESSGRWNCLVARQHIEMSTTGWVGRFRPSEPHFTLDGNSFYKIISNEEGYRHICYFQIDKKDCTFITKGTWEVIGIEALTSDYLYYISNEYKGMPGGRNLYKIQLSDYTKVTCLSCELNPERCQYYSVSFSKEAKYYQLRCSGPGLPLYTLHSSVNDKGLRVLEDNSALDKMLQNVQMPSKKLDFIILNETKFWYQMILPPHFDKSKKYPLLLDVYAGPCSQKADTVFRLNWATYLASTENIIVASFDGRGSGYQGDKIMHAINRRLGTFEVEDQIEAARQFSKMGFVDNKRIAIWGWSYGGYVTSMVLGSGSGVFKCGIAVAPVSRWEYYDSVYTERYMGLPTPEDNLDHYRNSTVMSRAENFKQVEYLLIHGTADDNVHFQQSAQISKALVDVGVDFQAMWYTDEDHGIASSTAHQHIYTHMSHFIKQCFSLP
Description: The DPP IV inhibition activities of the entire sets of compounds were carried out on purified recombinant human DPP IV using conditions previously optimized.[35]
Four independent in vitro experiments were carried out, and each of those was performed in triplicate in a white half-volume 96-well solid plate. […] Afterward, the samples were mixed and 50 μL was transferred to each plate well. Each reaction was started by adding 50 μL of the substrate solution (200 μM H-Gly-Pro-7-amido-4-methylcoumarin (AMC)) to each well and incubated at 37 °C for 30 min. […] The DPP IV enzyme and the substrate solution were provided by Cayman Chemicals (Michigan).

[5] = Hepatic microsome stability; type: in vitro ADME; details: after 120 min of incubation
Description: To predict the metabolic fate as well as the susceptibility of compound 12 to phase I metabolism following the in vivo administration, it was incubated with human (Sekisui XenoTech, LLC), CD-1 mouse (BioIVT), and Sprague-Dawley (SD) rat liver microsomes (Corning), as described in the Experimental Section.

[6] = target: T3, DPP IV activity expressed by nondifferentiated Caco-2 cells (Homo sapiens, UniProt P27487); type: cell-based
T3 construct: Caco-2 cells that express high levels of DPP IV on their cellular membranes; endogenous in cells; host or cells: Caco-2 cells (INSERM, Paris)
T3 sequence (P27487 whole entry): as above
Description: The data are represented as the means ± standard deviation (SD) of three independent experiments, performed in triplicate. Statistical analysis was performed by one-way analysis of variance (ANOVA), followed by Tukey’s post hoc test. ns: not significant; (**), p < 0.01, (****) p < 0.0001; C: control cells.
A total of 3 × 10^4 Caco-2 cells/well were seeded in black 96-well plates with clear bottoms.

hCA IX = hCA IX (Homo sapiens, UniProt Q16790); assay: CA inhibition, stopped-flow CO2 hydration assay; details: read-out: Ki CA IX; stopped-flow technique, mean from three assays
Description: An applied photophysics stopped-flow instrument was used for assaying the CA-catalyzed CO2 hydration activity.[37]
The uncatalyzed rates were determined in the same manner and subtracted from the total observed rates. Stock solutions of the inhibitor (0.1 mM) were prepared in distilled–deionized water, and dilutions up to 0.01 nM were done thereafter with the assay buffer. Inhibitor and enzyme solutions were preincubated together for 15 min at room temperature prior to the assay to allow for the formation of the E–I complex. The inhibition constants were obtained by nonlinear least-squares methods using PRISM 3 and the Cheng–Prusoff equation, as reported earlier, and represent the mean from at least three different determinations. All CA isoforms were recombinant proteins obtained in-house, as reported earlier.[44]−[46]

SMILES: NC(CCOc1ccc(S(N)(=O)=O)cc1)C1COc2ccccc2O1 (centres unmarked) [Compound 12, 4-(3-Amino-3-(1,4-benzodioxan)propoxy)benzenesulfonamide]
- nH α1a-AR (slope factor) (human cloned α1a-AR): 0.97 ± 0.27
- pKi α1a-AR (human cloned α1a-AR; mean ± S.E.M.): 6.61
- intracellular fluorescence RFU 313/595 nm (uptake) (Caco-2 cells [1]; 15 min): 2874 ± 383.1 RFU
- intracellular fluorescence RFU 313/595 nm (uptake) (Caco-2 cells [1]; 30 min): 4562 ± 993.2 RFU
- intracellular fluorescence RFU 313/595 nm (uptake) (Caco-2 cells [1]; 60 min): 6250 ± 1163 RFU
- cell viability (MTT reduction) (Caco-2 cells [2]): maintain their metabolic activity
- cell viability (MTT reduction) (HepG2 cells): maintain their metabolic activity
- solubility [3]: 224 µM (≈ 81.6 µg/mL)
- IC50 [4]: 49 ± 4.5 nM
- compound remaining ([5]; human liver microsomes): 72.6%
- compound remaining ([5]; mouse liver microsomes): 27.5%
- compound remaining ([5]; rat liver microsomes): 16.7%
- inhibition of cellular DPP IV activity vs untreated cells [6]: 60.65 ± 4.92% and 71.86 ± 4.27%
- Ki (hCA IX): 133 nM
